Measured values as given in publication PMC12340956, “Tranylcypromine-Based LSD1 Inhibitors as Useful Agents to Reduce Viability of” (ACS Infectious Diseases, 2025).
Like-named read-outs stand apart in the source and are kept apart here.

Columns and labels:
NTS = test: Speed-of-action assay in NTS; type: cell-based, Schistosoma mansoni; settings: for Percentage of effect: NTS; for IC50: Schistosoma mansoni, read-out: IC50 (speed of action, NTS)
Text: (§1) To better characterize a selection of our LSD1i in vitro, we assessed the onset of their action, defined as the time required for an observable antischistosomal effect. […] For detailed percentages of activity at each time point, refer to the Supporting Information (Tables S2 and S3 in Supporting Information).

[1] = tested on: S. mansoni juvenile forms; test: Speed-of-action assay in juvenile forms; type: cell-based, Schistosoma mansoni; settings: for IC50: Schistosoma mansoni, read-out: IC50 (speed of action, juvenile forms); for Percentage of effect: juvenile forms
Text: as §1

adult worms = test: Adult worm viability phenotypic assay, 72 h; settings: Schistosoma mansoni, read-out: IC50 (adult worm viability)
[2] = MTT cytotoxicity in RPE cells; type: cell-based; settings: human, retinal pigment epithelial (RPE) cells
juvenile and adult worms = tested on: juvenile and adult worms; parameters: method as in earlier work of the authors (number not given); settings: ref earlier work of the authors (number not given); cited from earlier work
[3] = tested on: newly transformed schistosomula (NTS); test: NTS viability phenotypic screening, 72 h
Description: For NTS and adult worms, transparent flat-bottom 96- and 24-well plates were used, respectively (Sarstedt, Switzerland). For juvenile worms, 48-well plates were used with 3–6 worms per plate and RPMI medium with 5% FCS and 1% penicillin/streptomycin. Compounds were initially tested at 20 and 10 μM in triplicate on NTS and repeated once; each well contained 30–40 NTS. Phenotypic reference points such as motility, morphology, and granularity were used to score incubated parasites’ overall viability (scores from 0 to 3). […] Identified hits from the NTS screening were tested on adult worms. […] The experiment was conducted in duplicate and repeated; standard deviations were calculated from two wells. […] For all in vitro assays, negative controls (DMSO at the highest tested concentration) were included.

[4] = target: T1, human LSD1-CoREST complex (Homo sapiens, UniProt O60341); parameters: method as in footnote c (number not given); settings: positive control; ref footnote c (number not given); read-out: IC50 (hLSD1 direct inhibition); cited from earlier work
T1 construct: made in house

[5] = MTT cytotoxicity in MRC-5 cells; type: cell-based; settings: human, MRC-5 lung diploid fibroblast cells
[6] = 5 μM, read-out: percentage of viability, 72 h
[7] = 10 μM, read-out: percentage of viability, 72 h
[8] = 25 μM, read-out: percentage of viability, 72 h
[9] = 50 μM, read-out: percentage of viability, 72 h
[10] = read-out: IC50 (cell viability)

With `C#Cc1ccc(C(=O)Nc2ccc(C3CC3N)cc2)cc1` (stereo not drawn) [MC3935, reference compound] the Percentage of effect (NTS; 4 h, 10 μM) was 21.15%, the Percentage of effect (NTS; 4 h, 20 μM) was 23.08% and the Percentage of effect (NTS; 24 h, 10 μM) was 41.07%. For the same compound, the Percentage of effect (NTS; 24 h, 20 μM) was 41.07%, the Percentage of effect (NTS; 48 h, 10 μM) was 34.69% and the Percentage of effect (NTS; 48 h, 20 μM) was 57.14%. It also gave a Percentage of effect (NTS; 72 h, 10 μM) of 51.02%, a Percentage of effect (NTS; 72 h, 20 μM) of 59.18% and an IC50 (NTS; 4 h) greater than 20 µM. The IC50 (NTS; 24 h) was greater than 20 µM, the IC50 (NTS; 48 h) was 17.6 µM and the IC50 (NTS; 72 h) was 11.5 µM. For the same compound, the IC50 ([1]; 4 h) was greater than 20 µM, the IC50 ([1]; 24 h) was greater than 20 µM and the IC50 ([1]; 48 h) was greater than 20 µM. For the same compound, the IC50 ([1]; 72 h) was 17.7 µM, the Percentage of effect ([1]; 4 h, 1 μM) was 16.67% and the Percentage of effect ([1]; 4 h, 10 μM) was 23.33%. The Percentage of effect ([1]; 4 h, 20 μM) was 41.82%, the Percentage of effect ([1]; 24 h, 1 μM) was 17.24% and the Percentage of effect ([1]; 24 h, 10 μM) was 31.03%. It also gave a Percentage of effect ([1]; 24 h, 20 μM) of 38.46%, a Percentage of effect ([1]; 48 h, 1 μM) of 26.92% and a Percentage of effect ([1]; 48 h, 10 μM) of 32.69%. It also gave a Percentage of effect ([1]; 48 h, 20 μM) of 39.58%, a Percentage of effect ([1]; 72 h, 1 μM) of 31.48% and a Percentage of effect ([1]; 72 h, 10 μM) of 39%. The Percentage of effect ([1]; 72 h, 20 μM) was 56.25%, the IC50 (adult worms) was greater than 10 µM and the viability at 72 h, 5 µM [2, 6] was 84 ± 18%. The viability at 72 h, 10 µM [2, 7] was 87 ± 24%, the viability at 72 h, 25 µM [2, 8] was 82 ± 11% and the viability at 72 h, 50 µM [2, 9] was 100 ± 33%. The IC50 at 72 h [2, 10] was greater than 100 µM, the “time to parasite death” value (juvenile and adult worms) was no more than 96 h and the “Percentage of reduction of NTS viability, 72 h” value (from here on “Percentage of reduction … 72 h”) ([3]; 1 μM) was 33.3 ± 0.0%. The “Percentage of reduction … 72 h” value ([3]; 10 μM) was 45.5 ± 4.3%, the “Percentage of reduction … 72 h” value ([3]; 20 μM) was 100 ± 0.0% and the IC50 ([3]; Schistosoma mansoni, read-out: IC50 (NTS viability)) was 1.95 µM. The IC50 [4] was 0.52 µM, the viability at 72 h, 5 µM [5, 6] was 94 ± 10% and the viability at 72 h, 10 µM [5, 7] was 97 ± 9%. For the same compound, the viability at 72 h, 25 µM [5, 8] was 93 ± 17%, the viability at 72 h, 50 µM [5, 9] was 94 ± 10% and the IC50 at 72 h [5, 10] was greater than 100 µM.
